Measurements as given in the supplement of paper PMC10307832.

Each cell line was assayed with CC(C)CCN1c2nc(Nc3cc(F)c(O)c(F)c3)ncc2N(C)C(=O)C1C [BI-D1870] + COc1cccc2cc(-c3nc([C@H]4CC[C@H](C(=O)O)CC4)n4ncnc(N)c34)[nH]c12 [OSI-027] (partner 0.5 µM) (assay: relative viability (nuclei count vs DMSO), 5 days (fraction); higher = more cells survive). Settings: first compound 0.04 µM.
Summary of the method: (§1)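 Relative viability was taken as the ratio of nuclei in treated wells to nuclei in vehicle wells. Lung cancer cell lines in 1536-well plates received compounds by pin tool one day after seeding, either one drug alone or a fixed anchor-drug dose plus five library-drug doses (not always all listed) in √10 steps. Nuclei were counted on 4× images after 5 days of treatment, and values are medians of duplicate plates.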
With EKVX the relative viability was 0.68. LC-2-ad gave a relative viability of 0.93. Work on NCI-H1944 yielded a relative viability of 0.514. For NCI-H1975, the relative viability was 0.755. In the case of RERF-LC-KJ, the relative viability is reported as 0.595. ABC-1 gave a relative viability of 0.669. Cell Line NCI-H358 has a relative viability of 0.825. With NCI-H650 the relative viability was 0.538. PC-3 [JPC-3] showed a relative viability of 0.752.

Same assay, conditions: first compound 0.1265 µM
In the case of EKVX, the relative viability is reported as 0.608. LC-2-ad showed a relative viability of 0.861. For NCI-H1944, the relative viability was 0.376. For NCI-H1975, the relative viability was 0.58. RERF-LC-KJ was tested, and the relative viability was 0.478. With ABC-1 the relative viability was 0.406. NCI-H358 gave a relative viability of 0.65. Work on NCI-H650 yielded a relative viability of 0.427. In the case of PC-3 [JPC-3], the relative viability is reported as 0.703.

Same assay, conditions: first compound 0.4 µM
Cell Line EKVX has a relative viability of 0.64. In the case of LC-2-ad, the relative viability is reported as 0.824. For NCI-H1944, the relative viability was 0.366. For NCI-H1975, the relative viability was 0.54. In the case of RERF-LC-KJ, the relative viability is reported as 0.558. ABC-1 showed a relative viability of 0.416. NCI-H358 gave a relative viability of 0.687. For NCI-H650, the relative viability was 0.509. PC-3 [JPC-3] showed a relative viability of 0.674.

Same assay, conditions: first compound 1.265 µM
EKVX gave a relative viability of 0.776. LC-2-ad was tested, and the relative viability was 0.867. For NCI-H1944, the relative viability was 0.475. NCI-H1975 was tested, and the relative viability was 0.559. Work on RERF-LC-KJ yielded a relative viability of 0.628. ABC-1 was tested, and the relative viability was 0.501. Work on NCI-H358 yielded a relative viability of 0.728. NCI-H650 gave a relative viability of 0.471. PC-3 [JPC-3] showed a relative viability of 0.697.

Same assay, conditions: first compound 4 µM
In the case of EKVX, the relative viability is reported as 0.641. Work on LC-2-ad yielded a relative viability of 0.802. In the case of NCI-H1944, the relative viability is reported as 0.426. NCI-H1975 was tested, and the relative viability was 0.457. RERF-LC-KJ showed a relative viability of 0.389. ABC-1 was tested, and the relative viability was 0.319. NCI-H358 gave a relative viability of 0.344. Cell Line NCI-H650 has a relative viability of 0.446. PC-3 [JPC-3] gave a relative viability of 0.565.

The cell lines below were run with O=c1ncccn1[C@@H]1O[C@H](CO)[C@@H](O)[C@H]1O [Zebularine] + N=C(N)NC(=N)NCCc1ccccc1 [Phenformin] (partner 250 µM) in the same assay as above. Settings: first compound 1 µM.
Summary of the method: as §1
In the case of EKVX, the relative viability is reported as 0.238. LC-2-ad gave a relative viability of 0.657. Work on NCI-H1944 yielded a relative viability of 0.226. NCI-H1975 gave a relative viability of 0.416. Work on RERF-LC-KJ yielded a relative viability of 0.403. ABC-1 gave a relative viability of 0.237. NCI-H358 showed a relative viability of 0.354. With NCI-H650 the relative viability was 0.454. For PC-3 [JPC-3], the relative viability was 0.461.

Same assay, conditions: first compound 3.162 µM
For EKVX, the relative viability was 0.248. For LC-2-ad, the relative viability was 0.538. Work on NCI-H1944 yielded a relative viability of 0.188. In the case of NCI-H1975, the relative viability is reported as 0.417. With RERF-LC-KJ the relative viability was 0.431. For ABC-1, the relative viability was 0.229. NCI-H358 was tested, and the relative viability was 0.261. NCI-H650 gave a relative viability of 0.45. For PC-3 [JPC-3], the relative viability was 0.486.

Same assay, conditions: first compound 10 µM
With EKVX the relative viability was 0.218. LC-2-ad showed a relative viability of 0.416. With NCI-H1944 the relative viability was 0.174. For NCI-H1975, the relative viability was 0.229. RERF-LC-KJ was tested, and the relative viability was 0.35. Work on ABC-1 yielded a relative viability of 0.255. With NCI-H358 the relative viability was 0.209. For NCI-H650, the relative viability was 0.409. In the case of PC-3 [JPC-3], the relative viability is reported as 0.437.

Same assay, conditions: first compound 31.62 µM
Cell Line EKVX has a relative viability of 0.238. LC-2-ad showed a relative viability of 0.488. For NCI-H1944, the relative viability was 0.19. NCI-H1975 showed a relative viability of 0.221. Work on RERF-LC-KJ yielded a relative viability of 0.41. ABC-1 gave a relative viability of 0.179. NCI-H358 gave a relative viability of 0.227. In the case of NCI-H650, the relative viability is reported as 0.295. PC-3 [JPC-3] showed a relative viability of 0.46.

Same assay, conditions: first compound 100 µM
Cell Line EKVX has a relative viability of 0.251. LC-2-ad was tested, and the relative viability was 0.325. NCI-H1944 gave a relative viability of 0.146. For NCI-H1975, the relative viability was 0.148. Cell Line RERF-LC-KJ has a relative viability of 0.406. With ABC-1 the relative viability was 0.222. NCI-H358 showed a relative viability of 0.154. For NCI-H650, the relative viability was 0.285. PC-3 [JPC-3] showed a relative viability of 0.396.

Each cell line was assayed with CC(C)CCN1c2nc(Nc3cc(F)c(O)c(F)c3)ncc2N(C)C(=O)C1C [BI-D1870] + CC(=O)c1c(C)c2cnc(Nc3ccc(N4CCNCC4)cn3)nc2n(C2CCCC2)c1=O [Palbociclib] (partner 0.5 µM) in the same assay as above. Settings: first compound 0.04 µM.
Summary of the method: as §1
Work on EKVX yielded a relative viability of 0.472. For LC-2-ad, the relative viability was 0.577. Work on NCI-H1944 yielded a relative viability of 0.335. In the case of NCI-H1975, the relative viability is reported as 0.785. In the case of RERF-LC-KJ, the relative viability is reported as 1.14. Work on ABC-1 yielded a relative viability of 0.973. With NCI-H358 the relative viability was 0.121. For NCI-H650, the relative viability was 0.384. In the case of PC-3 [JPC-3], the relative viability is reported as 0.578.

Same assay, conditions: first compound 0.1265 µM
EKVX was tested, and the relative viability was 0.366. For LC-2-ad, the relative viability was 0.471. With NCI-H1944 the relative viability was 0.308. For NCI-H1975, the relative viability was 0.521. RERF-LC-KJ gave a relative viability of 0.994. In the case of ABC-1, the relative viability is reported as 0.708. Work on NCI-H358 yielded a relative viability of 0.124. With NCI-H650 the relative viability was 0.304. Work on PC-3 [JPC-3] yielded a relative viability of 0.511.

Same assay, conditions: first compound 0.4 µM
EKVX showed a relative viability of 0.352. LC-2-ad was tested, and the relative viability was 0.509. Cell Line NCI-H1944 has a relative viability of 0.308. Work on NCI-H1975 yielded a relative viability of 0.552. Cell Line RERF-LC-KJ has a relative viability of 1.03. ABC-1 gave a relative viability of 0.667. Cell Line NCI-H358 has a relative viability of 0.117. For NCI-H650, the relative viability was 0.338. PC-3 [JPC-3] showed a relative viability of 0.53.

Same assay, conditions: first compound 1.265 µM
EKVX was tested, and the relative viability was 0.385. With LC-2-ad the relative viability was 0.477. Work on NCI-H1944 yielded a relative viability of 0.332. Cell Line NCI-H1975 has a relative viability of 0.623. Cell Line RERF-LC-KJ has a relative viability of 1.02. Cell Line ABC-1 has a relative viability of 0.849. Cell Line NCI-H358 has a relative viability of 0.128. For NCI-H650, the relative viability was 0.353. With PC-3 [JPC-3] the relative viability was 0.567.

Same assay, conditions: first compound 4 µM
Cell Line EKVX has a relative viability of 0.341. For LC-2-ad, the relative viability was 0.401. NCI-H1944 gave a relative viability of 0.33. Cell Line NCI-H1975 has a relative viability of 0.456. For RERF-LC-KJ, the relative viability was 0.766. Work on ABC-1 yielded a relative viability of 0.679. NCI-H358 was tested, and the relative viability was 0.126. NCI-H650 was tested, and the relative viability was 0.233. PC-3 [JPC-3] showed a relative viability of 0.478.

What follows are cell lines tested with CC(C)CCN1c2nc(Nc3cc(F)c(O)c(F)c3)ncc2N(C)C(=O)C1C [BI-D1870] + N=C(N)NC(=N)NCCc1ccccc1 [Phenformin] (partner 250 µM) in the same assay as above. Settings: first compound 0.04 µM.
Summary of the method: as §1
For EKVX, the relative viability was 0.243. LC-2-ad showed a relative viability of 0.586. Work on NCI-H1944 yielded a relative viability of 0.218. In the case of NCI-H1975, the relative viability is reported as 0.4. RERF-LC-KJ was tested, and the relative viability was 0.422. ABC-1 showed a relative viability of 0.215. With NCI-H358 the relative viability was 0.405. NCI-H650 was tested, and the relative viability was 0.444. For PC-3 [JPC-3], the relative viability was 0.514.

Same assay, conditions: first compound 0.1265 µM
Work on EKVX yielded a relative viability of 0.214. LC-2-ad showed a relative viability of 0.657. NCI-H1944 gave a relative viability of 0.185. For NCI-H1975, the relative viability was 0.37. RERF-LC-KJ showed a relative viability of 0.396. With ABC-1 the relative viability was 0.211. Work on NCI-H358 yielded a relative viability of 0.289. NCI-H650 gave a relative viability of 0.446. With PC-3 [JPC-3] the relative viability was 0.485.

Same assay, conditions: first compound 0.4 µM
For EKVX, the relative viability was 0.23. With LC-2-ad the relative viability was 0.502. NCI-H1944 gave a relative viability of 0.184. In the case of NCI-H1975, the relative viability is reported as 0.422. For RERF-LC-KJ, the relative viability was 0.407. Work on ABC-1 yielded a relative viability of 0.264. With NCI-H358 the relative viability was 0.343. NCI-H650 showed a relative viability of 0.432. In the case of PC-3 [JPC-3], the relative viability is reported as 0.482.

Same assay, conditions: first compound 1.265 µM
Work on EKVX yielded a relative viability of 0.21. LC-2-ad showed a relative viability of 0.636. NCI-H1944 showed a relative viability of 0.237. Cell Line NCI-H1975 has a relative viability of 0.426. With RERF-LC-KJ the relative viability was 0.435. In the case of ABC-1, the relative viability is reported as 0.218. Cell Line NCI-H358 has a relative viability of 0.326. In the case of NCI-H650, the relative viability is reported as 0.38. Cell Line PC-3 [JPC-3] has a relative viability of 0.498.

Same assay, conditions: first compound 4 µM
EKVX showed a relative viability of 0.18. LC-2-ad gave a relative viability of 0.54. Work on NCI-H1944 yielded a relative viability of 0.205. NCI-H1975 gave a relative viability of 0.313. Work on RERF-LC-KJ yielded a relative viability of 0.285. ABC-1 gave a relative viability of 0.212. NCI-H358 showed a relative viability of 0.218. NCI-H650 gave a relative viability of 0.322. Work on PC-3 [JPC-3] yielded a relative viability of 0.484.
